The source of these data is ChEMBL document CHEMBL4304811, “Development of a Water-Soluble Indolylmaleimide Derivative IM-93 Showing Dual Inhibition of Ferroptosis and NETosis” (ACS Med Chem Lett, 2019).

Structures are written as SMILES.

Assay [1] concerns the target Rhodopsin kinase GRK1 (Homo sapiens) (UniProt Q15835). Description: Binding affinity to wild-type human full length GRK1 (M1 to S563 residues) expressed in mammalian expression system assessed as residual binding level at 10 uM by Kinomescan method relative to control.
Assay [2] addresses Death-associated protein kinase 2 (Homo sapiens) (UniProt Q9UIK4). Description: Binding affinity to wild-type human full length DAPK2 (M1 to S370 residues) expressed in bacterial expression system assessed as residual binding level at 10 uM by Kinomescan method relative to control.
The target of assay [3] is Serine/threonine-protein kinase PAK 4 (Homo sapiens) (UniProt O96013). As to the kind of experiment: Binding affinity to wild-type human partial length PAK4 (Q144 to R438 residues) expressed in bacterial expression system assessed as residual binding level at 10 uM by Kinomescan method relative to control.
Assay [4] concerns the target Serine/threonine-protein kinase Sgk2 (Homo sapiens) (UniProt Q9HBY8). As to the kind of experiment: Binding affinity to wild-type human partial length SGK2 (L54 to C427 residues) expressed in mammalian expression system assessed as residual binding level at 10 uM by Kinomescan method relative to control.
Assay [5] addresses Ankyrin repeat and protein kinase domain-containing protein 1 (Homo sapiens) (UniProt Q8NFD2). Description: Binding affinity to wild-type human partial length ANKK1 (M1 to A305 residues) expressed in mammalian expression system assessed as residual binding level at 10 uM by Kinomescan method relative to control.
Assay [6] has as its target Serine/threonine-protein kinase MARK2 (Homo sapiens) (UniProt Q7KZI7). As to the kind of experiment: Binding affinity to wild-type human partial length MARK2 (M1 to R450 residues) expressed in bacterial expression system assessed as residual binding level at 10 uM by Kinomescan method relative to control.
In assay [7] the target is Cyclin-dependent kinase 4/cyclin D1 (Homo sapiens) (UniProt P11802+P24385). Description: Binding affinity to wild-type human full length CDK4/cyclinD1 (M1 to E303 residues) expressed in mammalian expression system assessed as residual binding level at 10 uM by Kinomescan method relative to control.
Assay [8] deals with Aurora kinase A (Homo sapiens) (UniProt O14965). Description: Binding affinity to wild-type human partial length AURKA (E122 to K401 residues) expressed in mammalian expression system assessed as residual binding level at 10 uM by Kinomescan method relative to control.
Assay [9] has as its target Non-receptor tyrosine-protein kinase TYK2 (Homo sapiens) (UniProt P29597). Description: Binding affinity to wild-type human partial length TYK2 JH2 pseudokinase domain (G556 to D888 residues) expressed in mammalian expression system assessed as residual binding level at 10 uM by Kinomescan method relative to control.
The target of assay [10] is Activin receptor type-2B (Homo sapiens) (UniProt Q13705). Description: Binding affinity to wild-type human ACVR2B (H169 to D504 residues) expressed in bacterial expression system assessed as residual binding level at 10 uM by Kinomescan method relative to control.
Assay [11] concerns the target Calcium/calmodulin-dependent protein kinase kinase 2 (Homo sapiens) (UniProt Q96RR4). As to the kind of experiment: Binding affinity to wild-type human partial length CAMKK2 (D65 to V471 residues) expressed in bacterial expression system assessed as residual binding level at 10 uM by Kinomescan method relative to control.
Assay [12] addresses Dual specificity mitogen-activated protein kinase kinase 7 (Homo sapiens) (UniProt O14733). Description: Binding affinity to wild-type human full length MKK7 (M1 to R419 residues) expressed in mammalian expression system assessed as residual binding level at 10 uM by Kinomescan method relative to control.
Assay [13] addresses Phosphatidylinositol 4-phosphate 3-kinase C2 domain-containing subunit beta (Homo sapiens) (UniProt O00750). Description: Binding affinity to wild-type human partial length PIK3C2B (M1 to L1634 residues) expressed in mammalian expression system assessed as residual binding level at 10 uM by Kinomescan method relative to control.
Assay [14] relates to Mast/stem cell growth factor receptor Kit (Homo sapiens), P10721 [V559D]. Description: Binding affinity to human partial length KIT V559D mutant (Y545 to D952 residues) expressed in bacterial expression system assessed as residual binding level at 10 uM by Kinomescan method relative to control.
In assay [15] the target is Serine/threonine-protein kinase SIK1 (Homo sapiens) (UniProt P57059). As to the kind of experiment: Binding affinity to wild-type human partial length SIK (M1 to Y304 residues) expressed in bacterial expression system assessed as residual binding level at 10 uM by Kinomescan method relative to control.
The target in assay [16] is Serine/threonine-protein kinase pim-3 (Homo sapiens) (UniProt Q86V86). As to the kind of experiment: Binding affinity to wild-type human partial length PIM3 (G16 to A317 residues) expressed in bacterial expression system assessed as residual binding level at 10 uM by Kinomescan method relative to control.
For assay [17], the system named is Mast/stem cell growth factor receptor Kit (Homo sapiens), P10721 [A829P]. Description: Binding affinity to human partial length KIT A829P mutant (I571 to D952 residues) expressed in mammalian expression system assessed as residual binding level at 10 uM by Kinomescan method relative to control.
Assay [18] concerns the target Ephrin type-A receptor 2 (Homo sapiens) (UniProt P29317). As to the kind of experiment: Binding affinity to wild-type human partial length EPHA2 (T593 to V891 residues) expressed in bacterial expression system assessed as residual binding level at 10 uM by Kinomescan method relative to control.
In assay [19] the target is Serine/threonine-protein kinase pim-1 (Homo sapiens) (UniProt P11309). As to the kind of experiment: Binding affinity to wild-type human partial length PIM1 (A15 to K313 residues) expressed in bacterial expression system assessed as residual binding level at 10 uM by Kinomescan method relative to control.
Assay [20] has as its target Serine/threonine-protein kinase PAK 1 (Homo sapiens) (UniProt Q13153). Description: Binding affinity to wild-type human partial length PAK1 (S149 to H545 residues) expressed in bacterial expression system assessed as residual binding level at 10 uM by Kinomescan method relative to control.
Assay [21] has as its target Calcium/calmodulin-dependent protein kinase type II subunit gamma (Homo sapiens) (UniProt Q13555). Description: Binding affinity to wild-type human partial length CAMK2G (R9 to A303 residues) expressed in bacterial expression system assessed as residual binding level at 10 uM by Kinomescan method relative to control.
In assay [22] the target is Serine/threonine-protein kinase tousled-like 1 (Homo sapiens) (UniProt Q9UKI8). Description: Binding affinity to wild-type human partial length TLK1 (K447 to A754 residues) expressed in bacterial expression system assessed as residual binding level at 10 uM by Kinomescan method relative to control.
For assay [23], the target named is Serine/threonine-protein kinase ULK2 (Homo sapiens) (UniProt Q8IYT8). As to the kind of experiment: Binding affinity to wild-type human partial length ULK2 (M1 to S301 residues) expressed in mammalian expression system assessed as residual binding level at 10 uM by Kinomescan method relative to control.
The target in assay [24] is Cyclin-dependent kinase-like 2 (Homo sapiens) (UniProt Q92772). As to the kind of experiment: Binding affinity to wild-type human partial length CDKL2 (M1 to D327 residues) expressed in bacterial expression system assessed as residual binding level at 10 uM by Kinomescan method relative to control.

For `CC(C)N1C(=O)C(NCCCN(C)C)=C(c2cn(C)c3ccccc23)C1=O.Cl`, the Activity in assay [1] came out at 96%; in assay [2], 100%; in [3], 89%; in assay [4], 82%; in assay [5], 90%; in assay [6], 93%. In addition, the Activity in [7] was 88%; in [8], 90%; in assay [9] it was 88%; in assay [10], 96%; in [11] it was 69%; in [12] it was 88%. Further, the Activity was 81% in assay [13]; 96% in [14]; 95% in assay [15]; 98% in [16]; 100% in assay [17]; 90% in assay [18]. Moreover, the Activity in [19] is 100%; in assay [20], 92%; in assay [21], 83%; in assay [22], 100%; in assay [23], 80%; in assay [24] it was 91%.
